Results published in patent publication US20250114448A1, “SAPONIN-BASED ADJUVANTS AND VACCINES” (ASOCIACIÓN CENTRO DE INVESTIGACIÓN COOPERATIVA EN …, priority 2022, published 2025).

How the values were obtained:
Parameters in all cases: species or system mice (C57BL/6)
[1] = system: anti-TnMUC1 IgG antibodies; experiment: Self-adjuvanting vaccine: anti-TnMUC1 total IgG (ELISA, BSA-TnMUC1 coated plates) in sera of immunized mice (In Vivo Experiment 2); conditions: C57BL/6 mice, subcutaneous, days 0, 11, 21, dose equimolar to 50 μg of MUC1 per injection, no external adjuvant, endpoint sera day 28, versus pre-sera
Procedure: (§1) Concerning the saponin-antigen conjugates, groups of five mice (C57BL/6, female, 6-8 weeks old) were vaccinated subcutaneously three times every […] (days 0, 11, and 21) with the glycoconjugate constructs (50 μg/mouse) in phosphate-buffered saline (PBS, 100 μl). To determine the antibody responses over time, mice were bled via submandibular vein at the indicated post-vaccination time point (day 18), and by cardiac puncture at the experimental endpoint (day 28). Blood was collected in BD Microtainer® tubes (Clot Activator/SST™ Gel) and centrifuged at 13000 g for 10 min. Sera were harvested and stored at −20° C. until further analysis.
(§2) Quantification of antibody production. Antibody titers against OVA protein for the saponin adjuvants, or against MUC1 and TnMUC1 antigens in the case of the conjugate constructs were measured by an indirect enzyme-linked immunosorbent assay (ELISA). Briefly, ELISA plates (Thermo Scientific) were coated with endotoxin-free OVA (EndoFit™ Ovalbumin; Invitrogen) or with BSA-MUC1 or BSA-TnMUC1 conjugates at 0.05 μg/well in carbonate buffer (pH 9.5), and plates were incubated overnight at 4° C. After washing the wells (PBS, 10 mM, containing 0.05% Tween 20), plates were blocked with 10% of fetal calf serum (FCS, Biowest) in PBS buffer for 1 h. […] Absorbance (OD, 450 nm) was immediately measured using a BioTek® Synergy HT multi-detection microplate reader. […]

anti-OVA IgG antibodies = experiment: Adjuvant activity: anti-OVA total IgG (ELISA) in sera of mice vaccinated with OVA plus saponin (In Vivo Experiment 1); conditions: C75BL6 mice, three subcutaneous injections 10 days apart, OVA 10 μg + saponin 50 μg, endpoint sera day 28, total IgG ELISA
Procedure: Vaccination of mice. In the case of the synthetic saponin adjuvants, groups of five mice (C57BL/6, female, 6-8 weeks old) were vaccinated subcutaneously three times every 10 days (days 0, 11, and 21) with endotoxin-free OVA (EndoFit™ Ovalbumin, Invitrogen) (10 μg/mouse) in phosphate-buffered saline (PBS, 100 μL) either alone (no-adjuvant control group) or with the synthetic saponins (50 μg/mouse). To analyze the antibody responses over time, mice were bled via the submandibular vein at the indicated pre-(day −1) and post-vaccination time points (days 18), and by cardiac puncture at the experimental endpoint (day 28). Blood was collected in BD Microtainer® tubes (Clot Activator/SST™ Gel) and centrifuged at 7500 g for 10 min, after which serum was harvested and stored at −20° C. until further analysis.
Quantification of antibody production. Antibody titers against OVA protein for the saponin adjuvants, or against MUC1 and TnMUC1 antigens in the case of the conjugate constructs were measured by an indirect enzyme-linked immunosorbent assay (ELISA). Briefly, ELISA plates (Thermo Scientific) were coated with endotoxin-free OVA (EndoFit™ Ovalbumin; Invitrogen) or with BSA-MUC1 or BSA-TnMUC1 conjugates at 0.05 μg/well in carbonate buffer (pH 9.5), and plates were incubated overnight at 4° C. After washing the wells (PBS, 10 mM, containing 0.05% Tween 20), plates were blocked with 10% of fetal calf serum (FCS, Biowest) in PBS buffer for 1 h. Serial dilutions of mouse sera in blocking buffer (10% FCS in PBS buffer) were added to the wells with appropriate controls and incubated for 1 h at room temperature. After washing, goat anti-mouse total IgG (Jackson ImmunoResearch) or subclass specific IgG1, IgG2b, IgG2c and IgG3 (SouthernBiotech) antibodies conjugated to horseradish peroxidase (HRP) were added to each well at the dilution indicated by the manufacturer. After 1 h incubation at room temperature, KPL SureBlue Reserve™ commercial solution (100 μL/well, SeraCare) containing 3,3′,5,5′-tetramethylbenzidine (TMB) was added as peroxidase substrate and after incubation for 10 min, the reaction was stopped with 2 N H2SO4 (100 μL/well). Absorbance (OD, 450 nm) was immediately measured using a BioTek® Synergy HT multi-detection microplate reader.
A straightforward proof-of-principle in vivo experiment was carried out to directly compare their adjuvant activities of prior art compound 12 and the compounds of the invention 1 and 2 in terms of IgG antibody production, using chicken ovalbumin (OVA) as a model antigen. […] Endpoint sera after three immunizations were probed via ELISA assays by coating 96-well plates with OVA (0.05 μg/ml) and total IgG optical density (OD) values (at day 28) were measured (FIG. 1).

anti-MUC1 IgG antibodies = experiment: Self-adjuvanting vaccine: anti-MUC1 total IgG (ELISA, BSA-MUC1 coated plates) in sera of immunized mice (In Vivo Experiment 2); conditions: C57BL/6 mice, subcutaneous, days 0, 11, 21, dose equimolar to 50 μg of MUC1 per injection, no external adjuvant, endpoint sera day 28, versus pre-sera
Procedure: as §1, §2

In the case of CC[C@H](C)C(NC(=O)[C@H](CCCCN)NC(=O)[C@H](Cc1c[nH]c2ccccc12)NC(=O)[C@@H](NC(=O)[C@H](C)NC(=O)[C@H](Cc1ccccc1)NC(=O)[C@H](CC(C)C)NC(=O)[C@H](CCCCN)CC(=O)NO/N=C1/CCC2(C)C(CCC3(C)C2CC=C2C4CC(C)(C)CC[C@]4(C(=O)O[C@]4([C@@H]5OC(C)[C@H](O[C@@H]6OC[C@@H](O)C(O)C6O)C(O)C5O)OC(CO)[C@H](NC(=O)CCCCCNC(=O)COCCOCCOCC(=O)NCC(=O)N[C@H](C(=O)N[C@H](C(=O)O[C@@H](CO)C(=O)N[C@@H](C)C(=O)N5CCC[C@H]5C(=O)N[C@@H](CC(=O)O)C(=O)N[C@H](C(=O)N[C@@H](CCCNC(=N)N)C(=O)N5CCC[C@H]5C(=O)N[C@@H](C)C(=O)N5CCC[C@H]5C(=O)NCC(=O)N[C@@H](CO)C(=O)N[C@H](C(=O)N[C@@H](C)C(N)=O)C(C)O)C(C)O[C@H]5OC(CO)[C@H](O)C(O)C5NC(C)=O)C(C)O)C(C)C)C(O)C4O)C(O)CC23C)C1(C)C)C(C)C)C(=O)N[C@H](C(=O)N[C@@H](Cc1ccc(O)cc1)C(=O)N[C@@H](CCCCN)C(=O)N[C@@H](CC(=O)O)C(=O)N[C@H](C(=O)O)[C@@H](C)O)[C@@H](C)O (stereo partly drawn) [compound 11, PV-Echinocystic Acid Saponin-TnMUC1 Tri-Conjugate], the “production of total anti-TnMUC1 IgG antibodies” value [1] is reported as “high levels”.
C[C@@H]1O[C@@H](O[C@H]2[C@H](OC(=O)[C@]34CCC(C)(C)C[C@H]3C3=CC[C@@H]5[C@@]6(C)CC/C(=N/O)C(C)(C)[C@@H]6CC[C@@]5(C)[C@]3(C)C[C@H]4O)O[C@H](CO)[C@H](NC(=O)CCCCCCCCCCC(=O)O)[C@@H]2O)[C@H](O)[C@H](O)[C@H]1O[C@@H]1OC[C@@H](O)[C@H](O)[C@H]1O [compound 2] was tested, and the “anti-OVA IgG antibody response versus negative control group (OVA alone)” value (anti-OVA IgG antibodies) was “significantly higher than that of the negative control group” and the “anti-OVA IgG titers compared to those induced by previous EA lead saponin 12 (C3-hydroxyl)” value (anti-OVA IgG antibodies) was “increased (significantly in the latter case)”.
For CC[C@H](C)C(NC(=O)[C@H](CCCCN)NC(=O)[C@H](Cc1c[nH]c2ccccc12)NC(=O)[C@@H](NC(=O)[C@H](C)NC(=O)[C@H](Cc1ccccc1)NC(=O)[C@H](CC(C)C)NC(=O)[C@H](CCCCN)CC(=O)NO/N=C1/CCC2(C)C(CCC3(C)C2CC=C2C4CC(C)(C)CC[C@]4(C(=O)O[C@]4([C@@H]5OC(C)[C@H](O[C@@H]6OC[C@@H](O)C(O)C6O)C(O)C5O)OC(CO)[C@H](NC(=O)CCCCCNC(=O)COCCOCCOCC(=O)NCC(=O)N[C@H](C(=O)N[C@H](C(=O)O[C@@H](CO)C(=O)N[C@@H](C)C(=O)N5CCC[C@H]5C(=O)N[C@@H](CC(=O)O)C(=O)N[C@H](C(=O)N[C@@H](CCCNC(=N)N)C(=O)N5CCC[C@H]5C(=O)N[C@@H](C)C(=O)N5CCC[C@H]5C(=O)NCC(=O)N[C@@H](CO)C(=O)N[C@H](C(=O)N[C@@H](C)C(N)=O)C(C)O)C(C)O)C(C)O)C(C)C)C(O)C4O)C(O)CC23C)C1(C)C)C(C)C)C(=O)N[C@H](C(=O)N[C@@H](Cc1ccc(O)cc1)C(=O)N[C@@H](CCCCN)C(=O)N[C@@H](CC(=O)O)C(=O)N[C@H](C(=O)O)[C@@H](C)O)[C@@H](C)O (stereo partly drawn) [compound 10, PV-Echinocystic Acid Saponin-MUC1 Tri-Conjugate], the “production of total anti-MUC1 IgG antibodies” value (anti-MUC1 IgG antibodies) was “high levels”.
With C[C@@H]1O[C@@H](O[C@H]2[C@H](OC(=O)[C@]34CCC(C)(C)C[C@H]3C3=CC[C@@H]5[C@@]6(C)CCC(=O)C(C)(C)[C@@H]6CC[C@@]5(C)[C@]3(C)C[C@H]4O)O[C@H](CO)[C@H](NC(=O)CCCCCCCCCCC(=O)O)[C@@H]2O)[C@H](O)[C@H](O)[C@H]1O[C@@H]1OC[C@@H](O)[C@H](O)[C@H]1O [compound 1] the “anti-OVA IgG antibody response versus negative control group (OVA alone)” value (anti-OVA IgG antibodies) was “significantly higher than that of the negative control group” and the “anti-OVA IgG titers compared to those induced by previous EA lead saponin 12 (C3-hydroxyl)” value (anti-OVA IgG antibodies) was “increased”.
